Reference: patent US20190328783A1, “A METHOD OF ENGINEERING PRODRUG-SPECIFIC HYPERSENSITIVE T-CELLS FOR IMMUNOTHERAPY BY GENE EXPRESSION” (CELLECTIS, priority 2016, published 2019)
“Also recorded” adds a separate entry of the source.

Key:
[1] = tested on: dCK KO T cells expressing CDA-BFP; assay: Viability by flow cytometry of dCK KO T cells transfected with CDA-BFP mRNA, in presence of prodrug; type: cell-based, human; conditions: increasing concentration (0 to 10 mM) for 48H; FIG. 2
Description: FIG. 2: Analysis by FACS for BFP expression in T cells render hypersensitive to the prodrugs 5fdC and 5HmdC by combining CDA expression and inactivation of dCK gene by KO. mRNA encoding a chimeric construction consisting of CDA fused to a BFP reporter, and a KO inactivation of dCK is made by using TALE-nuclease as explained later. […]
To further investigate the ability of T cells to be sensitive to 5fdC, IC50 for this prodrug was determined on dCK KO and WT T cells. […] At the end of 5fdC incubation, viability of T cells was determined by FACS analysis.
FIG. 2 presents the results to show whether primary T cells having undergone dCK KO can still endow resistance to purine nucleotide analogues as well as with hypersensitivity toward 5hmDC and SFDC. One day post transfection, dCK KO T cells were recovered and analyzed by flow cytometry for BFP expression. […] As described earlier, transfected cells were incubated in the presence of increasing concentration of 5hmdC or 5FdC for 48H and at the end of incubation, cell viability was determined by flow cytometry.

[2] = tested on: primary T cells transfected with CDA-BFP mRNA; assay: Viability by flow cytometry of primary T cells transfected with CDA-BFP mRNA, in presence of prodrug; type: cell-based, human; conditions: increasing concentration (0 to 10 mM) for 48H; FIG. 1
From the text: FIG. 1: Analysis by FACS for BFP expression in T cells render hypersensitive to the prodrugs 5fdC and 5HmdC after CDA expression. mRNA encoding a chimeric construction consisting of CDA fused to a BFP reporter. A) Viability rate expressed in percentage: comparison between mock (T cells not transfected by the CDA expression plasmid)—represented in the graph by unfilled bar- and transfected T cells by the CDA expression plasmid—represented in the graph by filled bar-, when all cells are submitted to an increasing dose of the 5fdC prodrug (from 0 to 10 mM); B) The same than for A) excepted that the cells are submitted to an increasing dose of the 5HmdC prodrug (from 0 to 10 mM). […]
To test the ability of CDA expression to endow primary T cell with hypersensitivity to hypomethylated agents 5hmdC and 5FdC, primary T cells were transfected with 40 μg of mRNA encoding a chimeric construction consisting of CDA fused to a BFP reported via a 2A self-cleaving peptide (SEQ ID NO. 9). One day post transfection, cells were recovered and analyzed by flow cytometry for BFP expression.
Transfected cells were incubated in the presence of increasing concentration of 5hmdC or 5FdC for 48H. At the end of incubation, cell viability was determined by flow cytometry. […]

Compound	prodrug hypersensitivity (cell viability) of dCK KO T cells transfected with CDA-BFP [1]	sensitivity (cell viability) of CDA-transfected T cells with respect to wild type cells [2]
Nc1nc(=O)n([C@H]2C[C@H](O)[C@@H](CO)O2)cc1C=O [5FdC, 5-formyl-2′-deoxycytidine]	increase of specific prodrug hypersensitivity; also recorded: hypersensitive	increase of sensitivity
Nc1nc(=O)n([C@H]2C[C@H](O)[C@@H](CO)O2)cc1CO [5hmdC, 5-hydroxymethyl-2′-deoxycytidine]	increase of specific prodrug hypersensitivity; also recorded: hypersensitive	increase of sensitivity
